Test system: XF-498 (human brain cancer)
Assay: SRB assay, XF-498 cancer cell line
Type: cell-based
Conditions: brain cancer cell line of Test Example 1, SRB assay
Experimental: The pyridylpyridazine compounds prepared in Preparation Examples 1 to 5 and transition metal complexes thereof were evaluated for the anticancer activities thereof. As cancer cell lines used in the test, A549 (human lung cancer), SK-MEL-2 (human skin cancer), HCT-15 (human colon cancer), SK-OV-3 (human […]) and XF-498 (human brain cancer) among 60 kinds of cancer cell lines[Ross, D. T. et al., Systematic variation in gene expression patterns I human cancer cell lines. Nature genetics, 24, 227-235 (2000)], which are used for the search of anticancer activity in the US National Cancer Institute, were obtained from the Bioorganic Research Division, the Korea Research Institute of Chemical Technology. The anticancer activities of the cell lines were evaluated by measuring ED50 values according to the sulforhodamine B (SRB) assay described in the literature[Choi, S. et al., Cytotoxicity of trichlorothecenes to human solid tumor cells in vitro. Arch. Pharm. Res. 19, 6-11 (1996)]. […]
More specifically, the SRB assay was performed in the following manner. […] After completion of the culture, each well was well washed, treated with 150 μl (10 mM) of unbuffer ED Tris solution to dissolve out the SRB dye, and then measured for absorbance at 520 nm using a reader for 96-well plates. […]

Compound	anticancer activity against the brain cancer cell line (in words)
c1ccc(-c2ccc(-c3ccccn3)nn2)nc1 [Compound of Preparation Example 1, 3,6-bis(2′-pyridyl)pyridazine]	high anticancer activity
[3,6-bis(6′-methyl-2′-pyridyl)pyridazine]zinc(II) chloride [Compound of Preparation Example 4]	excellent anticancer activity
